Measurements as given in publication PMC8350395, “Hsa-miR-4277 Decelerates the Metabolism or Clearance of Sorafenib in HCC Cells and Enhances the Sensitivity of HCC Cells to Sorafenib by Targeting cyp3a4” (Frontiers in Oncology, 2021).
Where two headings read alike, the source gives them in different places.

Legend:
[1] = tested on: MHCC97-H cells; test: Assessment of cell survival (MTT); format: cell-based; conditions: Homo sapiens, MHCC97H, 48 h
Method: (§1) After transfection or treated with potential inhibitor of cyp3a4, HCC cells were treated with a series concentrations of sorafenib, lenvatinib, cabozantinib, regorafenib, anlotinib, or apatinib (10 μmol/L, 3 μmol/L, 1 μmol/L, 0.3 μmol/L, 0.1 μmol/L, 0.03 μmol/L, or 0.01 μmol/L). After 48 h, MTT was performed to measure ell survival, and the IC50 value of each agent was calculated ([36]–[38]).
The *P < 0.05 being statistically significant between groups.

[2] = in vitro; conditions: human
Method: (§2) HCC cells were used to examine the rate of elimination of sorafenib ([18], [19], [34], [35]). For cell-based experiments, HCC cells were treated with 1 μmol/L of sorafenib for 12 h. After treatment, the cells were harvested at a series of time-points. For in vivo experimentation, HCC cells were cultured and subcutaneously injected into mice to generate tumors. When tumor volume reached 2000 mm^3, a solution of sorafenib was directly injected into the tumors. After injection, the tumors were excised at a series of time-points. Next, sorafenib was extracted from MHCC97-H cells or tumors using the acetonitrile (ACN). The sustaining amount of sorafenib at each time-point was measured using liquid chromatography–mass spectrometry/mass spectrometry (LC-MS/MS) and the in vitro/in vivo half-life of sorafenib was determined ([18], [19], [34], [35]).
(§3) SPSS 9.0 statistical software (IBM Corporation, Armonk, NY, USA) was used for all statistical analyses. Statistics were calculated using two-way ANOVA with the Bonferroni correction. IC50 values and the half-lie values (t1/2 values) were calculated using Origin software (Origin 6.1; OriginLab Corporation, Northampton, MA, USA). The *P < 0.05 being statistically significant between groups. The heat-map of the qPCR results were obtained according to the methods by Zhou et al. ([41]) and Yin et al. ([42]).

[3] = tested on: patients with advanced HCC; format: in vivo, human; conditions: advanced HCC patients receiving sorafenib
Description: The endogenous mRNA levels of cyp3a4 in HCC clinical specimens were identified using quantitative polymerase chain reaction (qPCR) in accordance with methods described by Wang et al. ([20]) and Ma et al. ([20], [25]). […] The results (the relative expression level [folds of β-Actin]) of PXR or CAR was shown as heat-map.

[4] = tested on: subcutaneous tumors formed by MHCC97-H cells; test: in vivo
Method: as §2, §3

[5] = in vivo; conditions: nude, mouse, in vivo, t1/2 of Sorafenib
Method: as §2, §3

[6] = Assessment of sorafenib elimination in cultured HCC cells (LC-MS/MS); format: in vitro ADME; conditions: human, read-out: t1/2 values (converted)
Method: as §2, §3

[7] = tested on: MHCC97-H cells; test: Nude mouse subcutaneous tumor model; format: in vivo, nude mice
Method: All animal experiments were reviewed approved by the Institutional Animal Care and Use Committee, the Fifth Medical Center, Chinese PLA. All animal experiments were performed in accordance with the UK Animals (Scientific Procedures) Act, 1986 and the associated guidelines. Female nude mice were purchased from the Si-Bei-Fu Corporation, Beijing China. Following transfection, MHCC97-H cells were prepared as a single-cell suspension and subcutaneously injected into nude mice ([39], [40]). The mice orally received sorafenib once every two days. Tumors from the mice were harvested, and the volumes and weights were measured ([39], [40]).

[8] = tested on: BEL-7402; test: Assessment of cell survival (MTT); format: cell-based; conditions: Homo sapiens, Bel-7402, 48 h
Method: as §1, §3

[9] = tested on: SMMC-7721; test: Assessment of cell survival (MTT); format: cell-based; conditions: Homo sapiens, SMMC-7721, 48 h
Method: as §1, §3

[10] = control miRNA, read-out: IC50 values of the agents on MHCC97-H cells
[11] = miR-4277 + CYP3A4^Mut, read-out: IC50 values of the agents on MHCC97-H cells
[12] = miR-4277 + CYP3A4^Mut-1, read-out: IC50 values of the agents on MHCC97-H cells
[13] = miR-4277 + CYP3A4^Mut-2, read-out: IC50 values of the agents on MHCC97-H cells
[14] = miR-4277, read-out: IC50 values of the agents on MHCC97-H cells
[15] = CYP3A4 mRNA expression High (n = 26)
[16] = CYP3A4 mRNA expression Low (n = 26)

Question: For `COc1cc2c(Oc3ccc4[nH]c(C)cc4c3F)ccnc2cc1OCC1(N)CC1` [Anlotinib], which IC50 [1, 10] is on record?
Answer: 750 ± 30 nM

Question: What about the IC50 [1, 11] of the same compound?
Answer: 780 ± 550 nM

Question: And the IC50 [1, 12]?
Answer: 300 ± 120 nM

Question: And the IC50 [1, 13]?
Answer: 450 ± 350 nM

Question: What about the IC50 [1, 14] of the same compound?
Answer: 100 ± 10 nM

Question: What does the source list for `N#CC1(c2ccc(NC(=O)c3cccnc3NCc3ccncc3)cc2)CCCC1` [Apatinib]?
Answer: IC50 [1, 10]: 960 ± 330 nM; IC50 [1, 11]: 980 ± 370 nM; IC50 [1, 12]: 520 ± 270 nM; IC50 [1, 13]: 460 ± 300 nM; IC50 [1, 14]: 260 ± 70 nM

Question: Which results are given for `COc1cc2nccc(Oc3ccc(NC(=O)C4(C(=O)Nc5ccc(F)cc5)CC4)cc3)c2cc1OC` [Cabozantinib]?
Answer: IC50 [1, 10]: 510 ± 190 nM; IC50 [1, 11]: 560 ± 150 nM; IC50 [1, 12]: 250 ± 60 nM; IC50 [1, 13]: 300 ± 210 nM; IC50 [1, 14]: 100 ± 40 nM

Question: What does the source list for `COc1cc2nccc(Oc3ccc(NC(=O)NC4CC4)c(Cl)c3)c2cc1C(N)=O` [Lenvatinib]?
Answer: IC50 [1, 10]: 550 ± 200 nM; IC50 [1, 11]: 600 ± 200 nM; IC50 [1, 12]: 410 ± 10 nM; IC50 [1, 13]: 280 ± 110 nM; IC50 [1, 14]: 120 ± 60 nM

Question: For `CNC(=O)c1cc(Oc2ccc(NC(=O)Nc3ccc(Cl)c(C(F)(F)F)c3)c(F)c2)ccn1` [Regorafenib], which IC50 [1, 10] is on record?
Answer: 670 ± 490 nM

Question: What about the IC50 [1, 11] of the same compound?
Answer: 710 ± 280 nM

Question: And the IC50 [1, 12]?
Answer: 330 ± 320 nM

Question: What about the IC50 [1, 13] of the same compound?
Answer: 350 ± 90 nM

Question: What about the IC50 [1, 14] of the same compound?
Answer: 220 ± 40 nM

Question: For `CNC(=O)c1cc(Oc2ccc(NC(=O)Nc3ccc(Cl)c(C(F)(F)F)c3)cc2)ccn1` [Sorafenib], which half-life at 1 μmol/L [2] is on record?
Answer: 21.6 ± 1.34 h

Question: And the half-life at 1 μmol/L ([2]; MHCC97-H cells (HCC cell line))?
Answer: 23.6 ± 0.7 h

Question: What about the half-life at 1 μmol/L ([2]; MHCC97-H cells (HCC cell line) transfected with miR-4277) of the same compound?
Answer: 38.5 ± 9.97 h

Question: What about the half-life at 1 μmol/L ([2]; MHCC97-H cells (HCC cell line) with miR-4277 + CYP3A4^Mut) of the same compound?
Answer: 19.9 ± 2.71 h

Question: What about the half-life at 1 μmol/L ([2]; MHCC97-H cells (HCC cell line) with miR-4277 + CYP3A4^Mut-1) of the same compound?
Answer: 22.1 ± 6.59 h

Question: And the half-life at 1 μmol/L ([2]; MHCC97-H cells (HCC cell line) with miR-4277 + CYP3A4^Mut-2)?
Answer: 24.7 ± 8.63 h

Question: And the “OS (overall survival)” value [3, 15]?
Answer: 8.0 M

Question: And the “TTP (time to progress)” value [3, 15]?
Answer: 9.0 M

Question: And the “OS (overall survival)” value [3, 16]?
Answer: 15.0 M

Question: What about the “TTP (time to progress)” value [3, 16] of the same compound?
Answer: 11.0 M

Question: And the “t1/2 of Sorafenib” value ([4]; nude, mouse, in vivo)?
Answer: 72.79 ± 7.52 h

Question: And the “t1/2 of Sorafenib” value ([4]; subcutaneous MHCC97-H tumors, miR-4277 + CYP3A4^Mut-1, sorafenib injected into tumors)?
Answer: 52.38 ± 16.19 h

Question: What about the “t1/2 of Sorafenib” value ([4]; subcutaneous MHCC97-H tumors, miR-4277 + CYP3A4^Mut, sorafenib injected into tumors) of the same compound?
Answer: 36.67 ± 12.58 h

Question: And the half-life [5]?
Answer: 45.7 ± 5.31 h

Question: What about the half-life at 1 μmol/L ([6]; BEL-7402 cells (HCC cell line) with miR-4277 + CYP3A4^Mut, BEL-7402, miR-4277 + CYP3A4^Mut) of the same compound?
Answer: 26.4 ± 3.79 h

Question: And the half-life at 1 μmol/L ([6]; BEL-7402 cells (HCC cell line) with miR-4277, BEL-7402, miR-4277)?
Answer: 42.4 ± 3.33 h

Question: What about the half-life at 1 μmol/L ([6]; BEL-7402 cells (HCC cell line), BEL-7402, control) of the same compound?
Answer: 28.2 ± 8.67 h

Question: And the half-life at 1 μmol/L ([6]; HepG2 cells (HCC cell line) with miR-4277 + CYP3A4^Mut, HepG2, miR-4277 + CYP3A4^Mut)?
Answer: 25.7 ± 4.47 h

Question: And the half-life at 1 μmol/L ([6]; HepG2 cells (HCC cell line) with miR-4277, HepG2, miR-4277)?
Answer: 56.4 ± 1.9 h

Question: What about the half-life at 1 μmol/L ([6]; HepG2 cells (HCC cell line), HepG2, control) of the same compound?
Answer: 30.3 ± 3.31 h

Question: And the half-life at 1 μmol/L ([6]; SMMC-7721 cells (HCC cell line) with miR-4277 + CYP3A4^Mut, SMMC-7721, miR-4277 + CYP3A4^Mut)?
Answer: 27.4 ± 6.93 h

Question: What about the half-life at 1 μmol/L ([6]; SMMC-7721 cells (HCC cell line) with miR-4277, SMMC-7721, miR-4277) of the same compound?
Answer: 46.2 ± 2.88 h

Question: What about the half-life at 1 μmol/L ([6]; SMMC-7721 cells (HCC cell line), SMMC-7721, control) of the same compound?
Answer: 25.7 ± 2.43 h

Question: What about the IC50 ([1]; MHCC97-H cells, control miRNA, read-out: IC50 of Sorafenib) of the same compound?
Answer: 700 ± 90 nM

Question: And the IC50 ([1]; MHCC97-H cells, miR-4277 + CYP3A4^Mut, read-out: IC50 of Sorafenib)?
Answer: 920 ± 200 nM

Question: What about the IC50 ([1]; MHCC97-H cells, miR-4277 + CYP3A4^Mut-1, read-out: IC50 of Sorafenib) of the same compound?
Answer: 220 ± 140 nM

Question: And the IC50 ([1]; MHCC97-H cells, miR-4277 + CYP3A4^Mut-2, read-out: IC50 of Sorafenib)?
Answer: 350 ± 50 nM

Question: What about the IC50 ([1]; MHCC97-H cells, miR-4277, read-out: IC50 of Sorafenib) of the same compound?
Answer: 150 ± 10 nM

Question: What about the IC50 ([1]; Solvent control (no CYP3A4 inhibitor), read-out: Sorafenib on MHCC97-H IC50 values) of the same compound?
Answer: 680 ± 110 nM

Question: And the “subcutaneous growth of MHCC97-H cells” value ([7]; 0.5 mg/kg dose of sorafenib, oral, control-transfected cells)?
Answer: had no effect

Question: And the “subcutaneous growth of HCC cells (tumor volumes, tumor weights)” value ([7]; oral sorafenib once every two days, indicated doses, nude mice)?
Answer: inhibited the subcutaneous growth of HCC cells in a dose-dependent manner

Question: What about the IC50 ([8]; BEL-7402, control) of the same compound?
Answer: 1790 ± 180 nM

Question: What about the IC50 ([8]; BEL-7402, miR-4277) of the same compound?
Answer: 280 ± 50 nM

Question: What about the IC50 ([8]; BEL-7402, miR-4277 + CYP3A4^Mut) of the same compound?
Answer: 2880 ± 350 nM

Question: What about the IC50 ([9]; SMMC-7721, control) of the same compound?
Answer: 1950 ± 540 nM

Question: What about the IC50 ([9]; SMMC-7721, miR-4277) of the same compound?
Answer: 730 ± 330 nM

Question: And the IC50 ([9]; SMMC-7721, miR-4277 + CYP3A4^Mut)?
Answer: 1920 ± 550 nM
